Measured values reported in patent US10874622B2, “Dual assembly nanoparticles” (BOARD OF REGENTS, THE UNIVERSITY OF TEXAS SYSTEM, priority 2015, dated 2020).

Tested on: HeyA8 cells
Test: In vitro anoikis (poly-HEMA plates, Annexin V-FITC/PI)
Assay type: cell-based, human
Details: HeyA8 cells in suspension, 72 h
Procedure: In vitro anoikis. Cells were transfected with control or ZNF304 siRNA and transferred to 6-well tissue culture plates that were coated with polyhydroxyethylmethacrylate, and cells were cultured in these plates for 72 h at 37° C. in a 5% CO2 atmosphere. Cells were washed with PBS and were stained with Annexin V-FITC and PI solution (50 μg/ml) containing RNase A (25 μg/ml). After incubating the pellets for 30 min at 37° C., cell viability was analyzed by flow cytometry.
β1 integrin confers a survival advantage to tumor cells (Vachon, 2011). […] Therefore, the anoikis rates were examined at 24, 48, and 72 h in detached HeyA8 cells in vitro using polyhydroxyethylmethacrylate (poly-HEMA)-coated tissue culture plates that promote anchorage-independent cell growth (Sood et al., 2010).

Control siRNA: non-silencing siRNA without homology to any known human mRNA, UUCUCCGAACGUGUCACGUUU (SEQ ID NO: 15) (listed as RNA, chemistry not given here)
rate of anoikis: 60%
